Converted amounts (≈) assume the structure as drawn. The source made the active and inactive calls. The rule behind the calls is not given here.
Legend:
[1] = Selectivity index, HC50 for hemolytic activity in rabbit RBC to MIC for antibacterial activity against methicillin-resistant Staphylococcus aureus ATCC 33591; assay type: toxicity; conditions: rabbit red blood cells (RBC), read-out: Selectivity Index
[2] = system: Escherichia coli; test: Antibacterial activity against Escherichia coli ATCC25922 assessed as reduction in microbial growth after 24 hrs by broth dilution method; assay type: functional; conditions: ATCC 25922
[3] = system: Staphylococcus aureus; test: Antibacterial activity against Staphylococcus aureus ATCC 6538 assessed as reduction in microbial growth after 24 hrs by broth dilution method; assay type: functional
[4] = system: Klebsiella pneumoniae; test: Antibacterial activity against Klebsiella pneumoniae ATCC 700603 assessed as reduction in microbial growth after 24 hrs by broth dilution method; assay type: functional
[5] = system: Escherichia coli; test: Antibacterial activity against Escherichia coli ATCC25922 assessed as zone of inhibition incubated for 12 hrs by disc diffusion method; assay type: functional, ATCC 25922
[6] = system: Staphylococcus aureus; test: Antibacterial activity against Staphylococcus aureus ATCC 6538 assessed as zone of inhibition incubated for 12 hrs by disc diffusion method; assay type: functional
[7] = Hemolytic activity in rabbit RBC measured after 1 hrs by microplate reader assay; assay type: toxicity, cell-based, Oryctolagus cuniculus, Erythrocyte; conditions: rabbit red blood cells (RBC)
[8] = system: Staphylococcus aureus; test: Antibacterial activity against methicillin-resistant Staphylococcus aureus ATCC 33591 assessed as MIC incubated for 12 hrs
[9] = system: SGC-7901; test: Cytotoxicity against human SGC-7901 cells assessed as reduction in cell viability after 24 hrs by MTT assay; assay type: functional, cell-based; conditions: SGC-7901, 24 h
[10] = system: Escherichia coli; test: Bactericidal activity against Escherichia coli at 2MIC measured after 1 hrs by time-kill dilution assay relative to control; assay type: functional
[11] = system: Escherichia coli; test: Bactericidal activity against Escherichia coli at 4MIC measured after 1 hrs by time-kill dilution assay relative to control; assay type: functional
[12] = system: Escherichia coli; test: Bactericidal activity against Escherichia coli measured after 7 hrs by time-kill dilution assay relative to control; assay type: functional, organism-based
[13] = system: Staphylococcus aureus; test: Antibacterial activity against Staphylococcus aureus incubated with 50% plasma (unknown origin) measured after 4 hrs; assay type: functional, organism-based
[14] = system: Staphylococcus aureus; test: Antibacterial activity against Staphylococcus aureus incubated with 50% plasma (unknown origin) measured after 8 hrs; assay type: functional
[15] = system: Staphylococcus aureus; test: Antibacterial activity against Staphylococcus aureus assessed as fold change of bacterial growth inhibition incubated with 50% plasma (unknown origin); assay type: functional
[16] = system: Staphylococcus aureus; test: Antibacterial activity against Staphylococcus aureus assessed as fold change of bacterial growth inhibition incubated with 50% blood (unknown origin); assay type: functional
[17] = system: Staphylococcus aureus; test: Antibacterial activity against Staphylococcus aureus assessed as bacterial growth inhibition incubated with 50% serum (unknown origin); assay type: functional, organism-based
[18] = system: Staphylococcus aureus; test: Antibacterial activity against Staphylococcus aureus at sub-MIC measured treated over 16 serial passages after 24 hrs by resistance development assay; assay type: functional, organism-based
[19] = system: Escherichia coli; test: Antibacterial activity against Escherichia coli at sub-MIC treated over 16 serial passages measured after 24 hrs by resistance development assay; assay type: functional, organism-based
[20] = system: Escherichia coli; test: Antibiofilm activity against Escherichia coli at 20 ug/ml after 72 hrs by crystal violet staining based assay; assay type: functional; conditions: dose 20 µg/ml
[21] = system: Escherichia coli; test: Antibiofilm activity against Escherichia coli at 40 ug/ml after 72 hrs by crystal violet staining based assay; assay type: functional; conditions: dose 40 µg/ml
[22] = system: Escherichia coli; test: Antibiofilm activity against Escherichia coli at 80 ug/ml after 72 hrs by crystal violet staining based assay; assay type: functional; conditions: dose 80 µg/ml
[23] = system: Escherichia coli; test: Antibiofilm activity against Escherichia coli at 160 ug/ml after 72 hrs by crystal violet staining based assay; assay type: functional; conditions: dose 160 µg/ml
[24] = system: Escherichia coli; test: Antibiofilm activity against Escherichia coli at 320 ug/ml after 72 hrs by crystal violet staining based assay; assay type: functional; conditions: dose 320 µg/ml
[25] = system: Staphylococcus aureus; test: Antibiofilm activity against Staphylococcus aureus at 80 ug/ml after 24 hrs by crystal violet staining based assay; assay type: functional; conditions: dose 80 µg/ml
[26] = system: Staphylococcus aureus; test: Antibiofilm activity against Staphylococcus aureus at 160 ug/ml after 24 hrs by crystal violet staining based assay; assay type: functional; conditions: dose 160 µg/ml
[27] = system: Staphylococcus aureus; test: Antibiofilm activity against Staphylococcus aureus at 320 ug/ml after 24 hrs by crystal violet staining based assay; assay type: functional; conditions: dose 320 µg/ml
[28] = system: Staphylococcus aureus; test: Bactericidal activity against Staphylococcus aureus assessed as changes in cell morphology incubated for 3 hrs by SEM analysis; assay type: functional, organism-based
[29] = system: Escherichia coli; test: Bactericidal activity against Escherichia coli assessed as changes in cell morphology incubated for 3 hrs by SEM analysis; assay type: functional, organism-based
[30] = system: SGC-7901; test: Induction of apoptosis in human SGC-7901 cells assessed as apoptosis rate at 5 ug/ml incubated for 24 hrs by annexin V-FITC/propidium iodide staining based flow cytometric analysis (reference value: 7.44%); assay type: functional; conditions: dose 5 µg/ml
[31] = system: SGC-7901; test: Induction of apoptosis in human SGC-7901 cells assessed as apoptosis rate at 25 ug/ml incubated for 24 hrs by annexin V-FITC/propidium iodide staining based flow cytometric analysis (reference value: 7.44%); assay type: functional; conditions: dose 25 µg/ml
[32] = system: SGC-7901; test: Induction of apoptosis in human SGC-7901 cells assessed as apoptosis rate level at 50 ug/ml incubated for 24 hrs by annexin V-FITC/propidium iodide staining based flow cytometric analysis (reference value: 7.44%); assay type: functional; conditions: dose 50 µg/ml
[33] = system: L929; test: Cytotoxicity against mouse L929 cells assessed as reduction in cell viability at 31.5 to 125 ug/ml incubated for 24 hrs by MTT assay; assay type: toxicity, cell-based; conditions: l929, 24 h, at 31.5 to 125 µg/mL, dose 31.5-125 µg/ml
[34] = system: L929; test: Cytotoxicity against mouse L929 cells assessed as reduction in cell viability at 1000 ug/ml incubated for 24 hrs by MTT assay; assay type: toxicity, cell-based; conditions: l929, 24 h, at 1000 µg/mL
[35] = system: L929; test: Cytotoxicity against mouse L929 cells assessed as reduction in cell viability at 15.6 ug/ml incubated for 24 hrs by MTT assay; assay type: toxicity, cell-based; conditions: l929, 24 h, dose 15.6 µg/ml
[36] = system: Escherichia coli; test: Antibacterial activity against Escherichia coli assessed as fold change of bacterial growth inhibition incubated with 50% plasma (unknown origin); assay type: functional
[37] = system: Escherichia coli; test: Antibacterial activity against Escherichia coli assessed as fold change of bacterial growth inhibition incubated with 50% blood (unknown origin); assay type: functional
[38] = system: Escherichia coli; test: Antibacterial activity against Escherichia coli assessed as bacterial growth inhibition incubated with 50% serum (unknown origin); assay type: functional, organism-based

Work on `CC(C)[C@H](N)C(=O)Nc1ccc(Cl)cc1` yielded a selectivity ratio [1] of over 16, an MIC [2] of 156 µg/mL and an MIC [3] of 78 µg/mL. The MIC [4] was 156 µg/mL, the “diameter of the inhibition zone (DIZ)” value [5] was 10 mm and the “diameter of the inhibition zone (DIZ)” value [6] was 10.9 mm. The HC50 at 1 h [7] was over 1250 µg/mL and the MIC [8] was 78 µg/mL (≈ 344 µM).
`CC(C)[C@H](N)C(=O)Nc1ccc(Br)cc1` showed a selectivity ratio [1] of over 32, an MIC [2] of 39 µg/mL and an MIC [3] of 39 µg/mL. The MIC [4] was 78 µg/mL, the “diameter of the inhibition zone (DIZ)” value [5] was 11.8 mm and the “diameter of the inhibition zone (DIZ)” value [6] was 11.8 mm. It also gave an HC50 at 1 h [7] of over 1250 µg/mL and an MIC [8] of 78 µg/mL (≈ 288 µM).
In the case of `C#Cc1ccc(NC(=O)[C@@H](N)Cc2c[nH]c3ccccc23)cc1`, the selectivity ratio [1] is reported as over 16, the MIC [2] is reported as 156 µg/mL and the MIC [3] is reported as 78 µg/mL. The MIC [4] was 156 µg/mL, the “diameter of the inhibition zone (DIZ)” value [5] was 6.5 mm and the “diameter of the inhibition zone (DIZ)” value [6] was 10 mm. For the same molecule, the HC50 at 1 h [7] was over 1250 µg/mL and the MIC [8] was 78 µg/mL (≈ 257 µM).
`C#Cc1ccc(NC(=O)[C@@H](N)C(C)C)cc1` showed a selectivity ratio [1] of 356, an IC50 [9] of 70.8 µg/mL (≈ 327 µM) and an MIC [2] of 5 µg/mL. The MIC [3] was 2.5 µg/mL, the MIC [4] was 5 µg/mL and the “diameter of the inhibition zone (DIZ)” value [5] was 20 mm. The “diameter of the inhibition zone (DIZ)” value [6] was 21.8 mm, the HC50 at 1 h [7] was 891 µg/mL and the Activity [10] was 62.2%. For the same molecule, the Activity [11] was 0.4%, the Activity [12] was “Active” and the Activity [13] was “Active”. The “fold change (FC)” value [14] was 2, the “fold change (FC)” value [15] was 2 and the “fold change (FC)” value [16] was 4. For the same molecule, the Activity [17] was “inactive”, the Activity [18] was “inactive” and the Activity [19] was “inactive”. For the same molecule, the Activity [20] was 47.5%, the Activity [21] was 66.2% and the Activity [22] was 77.3%. It also gave an Activity [23] of 81.5%, an Activity [24] of 93.5% and an Activity [25] of 77.5%. The Activity [26] was 85.4%, the Activity [27] was 91% and the Activity [28] was “Active”. The Activity [29] was “Active”, the Activity [30] was 9.71% and the Activity [31] was 11.46%. It also gave an Activity [32] of 50.36%, an Activity [33] of 85% and an Activity [34] of 70%. The Activity [35] was “Non-Toxic”, the “fold change (FC)” value [36] was 2 and the “fold change (FC)” value [37] was 4. For the same molecule, the Activity [38] was “inactive” and the MIC [8] was 5 µg/mL (≈ 23.1 µM).
With `CN[C@H](CC(C)C)C(=O)N[C@H]1C(=O)N[C@@H](CC(N)=O)C(=O)N[C@H]2C(=O)N[C@H]3C(=O)N[C@H](C(=O)N[C@H](C(=O)O)c4cc(O)cc(O)c4-c4cc3ccc4O)[C@H](O)c3ccc(c(Cl)c3)Oc3cc2cc(c3O[C@@H]2O[C@H](CO)[C@@H](O)[C@H](O)[C@H]2O[C@H]2C[C@](C)(N)[C@H](O)[C@H](C)O2)Oc2ccc(cc2Cl)[C@H]1O` [VANCOMYCIN] the MIC [2] was 156 µg/mL, the MIC [3] was under 0.63 µg/mL and the MIC [4] was 1250 µg/mL. The MIC [8] was 1.25 µg/mL (≈ 0.863 µM).
With `CCCCCCNC(=O)[C@@H](N)C(C)C` the selectivity ratio [1] was 10, the MIC [2] was 20 µg/mL and the MIC [3] was 39 µg/mL. For the same molecule, the MIC [4] was 78 µg/mL, the “diameter of the inhibition zone (DIZ)” value [5] was 16.4 mm and the “diameter of the inhibition zone (DIZ)” value [6] was 12 mm. The HC50 at 1 h [7] was 392 µg/mL and the MIC [8] was 78 µg/mL (≈ 389 µM).
In the case of `CC(C)[C@H](N)C(=O)Nc1ccc(F)cc1`, the selectivity ratio [1] is reported as over 4, the MIC [2] is reported as 312 µg/mL and the MIC [3] is reported as 312 µg/mL. For the same molecule, the MIC [4] was 312 µg/mL, the “diameter of the inhibition zone (DIZ)” value [5] was 6 mm and the “diameter of the inhibition zone (DIZ)” value [6] was 6 mm. The HC50 at 1 h [7] was over 1250 µg/mL.
`C#Cc1cccc(NC(=O)[C@@H](N)Cc2ccccc2)c1` gave a selectivity ratio [1] of over 62.5, an MIC [2] of 39 µg/mL and an MIC [3] of 20 µg/mL. The MIC [4] was 39 µg/mL, the “diameter of the inhibition zone (DIZ)” value [5] was 10 mm and the “diameter of the inhibition zone (DIZ)” value [6] was 10.2 mm. For the same molecule, the HC50 at 1 h [7] was over 1250 µg/mL and the MIC [8] was 20 µg/mL (≈ 75.7 µM).
`Cc1ccc(NC(=O)[C@@H](N)C(C)C)cc1` showed an MIC [2] of over 1250 µg/mL, an MIC [3] of over 1250 µg/mL and an MIC [4] of over 1250 µg/mL.

From ChEMBL document CHEMBL5038623, “Synthesis and bioactivities of new N-terminal dipeptide mimetics with aromatic amide moiety: Broad-spectrum antibacterial activity and high antineoplastic activity” (Eur J Med Chem, 2022)
